{"source": "patent US5656422A", "about": "“Compositions and methods for detection of 2,4-dichlorophenoxyacetic acid and related compounds” (Idaho Research Foundation, Inc., priority 1994, dated 1997)", "key": {"O=C(O)COc1ccc(Cl)cc1Cl": {"test_system": "O=C(O)COc1ccc(Cl)cc1Cl", "test": "cells, lysate or membranes named", "conditions": "other: 20° C., pH 8.0, 50 μM Fe^2, cell-free extract", "source_text": "(§1) Effect of pH on enzyme activity. Since the color reaction by the 4-aminoantipyrine method is almost instantaneous, the conversion rate of 2,4-D into DCP determines the response time for 2,4-D detection. Higher reaction rates result in smaller response times or less enzyme needed for 2,4-D detection. […] However, the preferred pH for the color reaction is in the range of pH 8.0 to 12.0. […] More importantly, 4-aminoantipyrine reacts with potassium ferricyanide at pH 6.5, producing a slight color change that is similar to having 2 mg/l DCP in solutions. Although pH 6.5 can be used for the enzymatic reaction if the pH of the solution is subsequently adjusted for the color reaction, this is less convenient.\n(§2) Effect of Fe^2+ on enzyme activity. […] This saturation concentration should be a function of enzyme concentration used. In order to maximize enzyme activity, a higher ferrous ion concentration, such as 100 μM, should be used for 2,4-D detection.\n(§3) Kinetics of enzymatic reaction. […] Since oxygen cannot be controlled in the process of 2,4-D detection, oxygen was not considered in the model. Kinetic data were measured at pH 8.0, 100 mM Fe^2+ and room temperature (20° C.), as shown in the Lineweaver-Burk plots in FIGS. 18A and 18B.\n(§4) The values of model parameters were determined from double reciprocal plots."}, "O=C(O)CCC(=O)C(=O)O": {"test_system": "O=C(O)CCC(=O)C(=O)O", "test": "cells, lysate or membranes named", "conditions": "other: 20° C., pH 8.0, 50 μM Fe^2, cell-free extract"}, "[1]": {"molecular_target": "T1, 2,4-D α-ketoglutarate dioxygenase (Cupriavidus pinatubonensis, UniProt P10088)", "T1 sequence (P10088 whole entry)": "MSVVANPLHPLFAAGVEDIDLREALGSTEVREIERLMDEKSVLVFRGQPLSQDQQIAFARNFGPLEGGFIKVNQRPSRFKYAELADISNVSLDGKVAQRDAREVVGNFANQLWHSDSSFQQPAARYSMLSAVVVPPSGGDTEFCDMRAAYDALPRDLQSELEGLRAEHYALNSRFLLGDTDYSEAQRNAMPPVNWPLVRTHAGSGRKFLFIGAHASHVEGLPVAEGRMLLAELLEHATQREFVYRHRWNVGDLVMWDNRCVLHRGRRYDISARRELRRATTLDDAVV", "test": "Enzyme activity and kinetics of recombinant DDO in cell-free extract (DCP production, 4-aminoantipyrine method)", "source_text": "as §1, §2, §3, §4"}, "[2]": {"molecular_target": "T1, 2,4-D α-ketoglutarate dioxygenase", "set-up": "made in house; host or cells: E. coli DH5α (pYG3), cell-free extract", "conditions": "cited from earlier work"}, "E. coli DH5α (pYG3)": {"test_system": "E. coli DH5α (pYG3)", "test": "Induction of enzyme production by IPTG in E. coli DH5α (pYG3)", "assay_type": "cell-based", "description": "Growth and maintenance of E. coli DH5α (pYG3). E. coli DH5α (pYG3), a strain specifically constructed for 2,4-D detection (Example 1), was routinely maintained on LB plates with 75 mg/l of ampicillin and stored at 4° C. Yeast extract was used as a carbon and energy source for E. coli DH5α (pYG3) with 50 mg/l of ampicillin for selective pressure. Batch cultures of E. coli DH5α (pYG3) were carried out in 1000 ml flasks with 400 ml media for the optimization of media and operating condition. The media were directly inoculated by a single colony on a LB plate. The flasks were shaken on a rotary shaker at 200 rpm and incubated at 30° C. or 37° C.\nDCP concentration was measured by the 4-aminoantipyrine method (E. Emerson, J. Org. Chem. 1943, 8, 417-419). In place of 2,4-D, phenoxyacetic acid was used for P. aeruginosa PAO1 (pRO103).\nPreparation of cell-free extracts. E. coli cultures (10 or 15 ml) were harvested by centrifugation (8,000×g) for 10 minutes, washed using 5 ml of 100 mM sodium phosphate buffer (pH 8.0), then resuspended in 3 ml of phosphate buffer. Cell-free extracts were obtained by passing the cells once through a pre-chilled French press at 1500 psi and clarifying the debris by centrifugation (16,000×g) for 20 minutes at 4° C.\nIPTG concentration. IPTG was used as the inducer of the lacZ promoter which regulated the expression of tfdA in pYG3 (Example 1). […]"}}}
{"compound": "2,4-D α-ketoglutarate dioxygenase (Cupriavidus pinatubonensis JMP134)", "values": [{"measurement": "Km", "setting": "O=C(O)COc1ccc(Cl)cc1Cl", "result": 107, "unit": "µM"}, {"measurement": "Km", "setting": "O=C(O)CCC(=O)C(=O)O", "result": 55, "unit": "µM"}]}
{"compound": "2,4-D α-ketoglutarate dioxygenase [DDO]", "values": [{"measurement": "Vmax", "setting": "[1]; 20° C., pH 8.0, 50 μM Fe^2, cell-free extract of E. coli DH5α (pYG3)", "result": 2.0, "unit": "µmol/min/mg"}, {"measurement": "optimum pH for the enzymatic reaction", "setting": "[1]; conversion of 2,4-D into DCP", "result": 6.5}]}
{"compound": "O=C(O)COc1cc(Cl)c(Cl)cc1Cl", "note": "[2,4,5-T, (2,4,5,-trichlorophenoxy)acetic acid]", "values": [{"measurement": "cleavage by DDO", "setting": "[2]", "result": "does not cleave"}]}
{"compound": "Cc1ccccc1OCC(=O)O", "note": "[2-methylphenoxyacetic acid]", "values": [{"measurement": "cleavage by DDO", "setting": "[2]", "result": "cleaves"}]}
{"compound": "CC(C)S[C@@H]1O[C@H](CO)[C@H](O)[C@H](O)[C@H]1O", "note": "[IPTG, isopropyl β-D-thiogalactopyranoside]", "values": [{"measurement": "saturation IPTG concentration for enzyme production", "setting": "E. coli DH5α (pYG3); E. coli DH5α (pYG3)", "result": "approximately 150 mg/l"}, {"measurement": "activation at 150 µg/mL", "setting": "E. coli DH5α (pYG3); Escherichia coli, at saturation IPTG concentration, approximately 150 mg/l, read-out: enzyme productivity higher than without IPTG", "result": "~40", "unit": "%"}]}
{"compound": "Cc1cc(Cl)ccc1OCC(=O)O", "note": "[MCPA, 4-chloro-2-methyl-phenoxyacetic acid]", "values": [{"measurement": "cleavage by DDO", "setting": "[2]", "result": "cleaves the side chain"}]}
{"compound": "[Fe+2]", "note": "[ferrous ions]", "values": [{"measurement": "saturation concentration of ferrous ion for enzyme activity", "setting": "[1]; cell-free extract", "result": 50, "unit": "µM"}]}
{"compound": "O=C(O)COc1ccccc1", "note": "[phenoxyacetic acid]", "values": [{"measurement": "cleavage by DDO", "setting": "[2]", "result": "cleaves the side chain"}]}
